According to the supplement of paper PMC11208160:

Assay: recombinant UMI read abundance after kanamycin selection (control-corrected) (log10(CPM+1)); higher = more efficient recombination; extreme values may be limits of the assay; sequences stand for … in AGTGCAGAGAAAATCGGCCAGTTTTCTCTGCCTGCAGTCCGCATGCCGTGGGACCCCTTGGGTTCTAACCTGTTGCCTAGATTTATGCAGCGGACTGCCTTTCTCCCAAAGTGATAAACCGG…AGGTTGGTTTCACT; site = the 11-nt donor
Procedure, shortened: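 Sequenced counts of recombinant UMIs were turned into CPM, averaged across replicates and scaled with control-derived factors. The reported figure is log10(CPM+1). Those UMIs, each 12 nt long, tagged donor and donor-binding-loop pairs on a plasmid with a promoterless kanamycin gene, screened as a pool in Escherichia coli with IPTG (0.07 mM) plus kanamycin or without selection.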
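Further: IS621 bridge recombinase in Escherichia coli cells against a fixed T5 target plasmid.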

| Sequence | recombinant UMI read abundance (log10) |
| --- | --- |
| TCCAATTCATGGACCGGTTTTCCCGGTAATCCGTATTTGTC (site TCCAATTCTGT) | 0 |
| TCCACCGCATGGACCGGTTTTCCCGGTAATCCGTATTTGCC (site TCCACCGCTAG) | 0.0325 |
| TCCACCGCATGGACCGGTTTTCCCGGTAATCCGTATTTGCC (site TCCACCGCTCG) | 0.0335 |
| TCCACCGCATGGACCGGTTTTCCCGGTAATCCGTATTTGCC (site TCCACCGCTGG) | 0 |
| TCCACCGCATGGACCGGTTTTCCCGGTAATCCGTATTTGCC (site TCCACCGCTTG) | 0.00442 |
| TCCAGTACATGGACCGGTTTTCCCGGTAATCCGTATTTGAG (site TCCAGTACTCT) | 0.00906 |
| TCCATATCATGGACCGGTTTTCCCGGTAATCCGTATTTGTC (site ACCATATCTGA) | 0 |
| TCCATATCATGGACCGGTTTTCCCGGTAATCCGTATTTGTC (site CCCATATCTGA) | 0 |
| TCCATATCATGGACCGGTTTTCCCGGTAATCCGTATTTGTC (site GCCATATCTGA) | 0 |
| TCCCACACATGGACCGGTTTTCCCGGTAATCCGTATTTGTA (site ACCCACACTTA) | 0.0202 |
| TCCCACACATGGACCGGTTTTCCCGGTAATCCGTATTTGTA (site CCCCACACTTA) | 0.0988 |
| TCCCACACATGGACCGGTTTTCCCGGTAATCCGTATTTGTA (site GCCCACACTTA) | 0.0195 |
| TCCCACACATGGACCGGTTTTCCCGGTAATCCGTATTTGTA (site TCCCACACTTA) | 0.42 |
| TCCCACTCATGGACCGGTTTTCCCGGTAATCCGTATTTGGG (site TCCCACTCTCC) | 0.0433 |
| TCCCCAACATGGACCGGTTTTCCCGGTAATCCGTATTTGCT (site TCCCCAACTAG) | 0.417 |
| TCCCCTTCATGGACCGGTTTTCCCGGTAATCCGTATTTGAG (site TCCCCTTCTCT) | 0 |
| TCCCGCCCATGGACCGGTTTTCCCGGTAATCCGTATTTGGC (site TCCCGCCCTGC) | 0 |
| TCCGAGACATGGACCGGTTTTCCCGGTAATCCGTATTTGCG (site TCAGAGACTCG) | 0.0174 |
| TCCGAGACATGGACCGGTTTTCCCGGTAATCCGTATTTGCG (site TCCGAGACTCG) | 0.0319 |
| TCCGAGACATGGACCGGTTTTCCCGGTAATCCGTATTTGCG (site TCGGAGACTCG) | 0.0214 |
| TCCGAGACATGGACCGGTTTTCCCGGTAATCCGTATTTGCG (site TCTGAGACTCG) | 0.0115 |
| TCCGCCGCATGGACCGGTTTTCCCGGTAATCCGTATTTGCG (site TCCACCGCTCG) | 0 |
| TCCGCCGCATGGACCGGTTTTCCCGGTAATCCGTATTTGCG (site TCCCCCGCTCG) | 0.00514 |
| TCCGCCGCATGGACCGGTTTTCCCGGTAATCCGTATTTGCG (site TCCGCCGCTCG) | 0.0179 |
| TCCGCCGCATGGACCGGTTTTCCCGGTAATCCGTATTTGCG (site TCCTCCGCTCG) | 0.00863 |

| Sequence | recombinant UMI read abundance (log10) |
| --- | --- |
| TCCGCTACATGGACCGGTTTTCCCGGTAATCCGTATTTGAT (site TCCGCTACTAT) | 0.00615 |
| TCCGGGTCATGGACCGGTTTTCCCGGTAATCCGTATTTGTA (site TCCGGGTCTTA) | 0.413 |
| TCCTAATCATGGACCGGTTTTCCCGGTAATCCGTATTTGTC (site TCCTAATCTGA) | 0 |
| TCCTACCCATGGACCGGTTTTCCCGGTAATCCGTATTTGAG (site TCCTACCCTCT) | 0.0177 |
| TCCTAGCCATGGACCGGTTTTCCCGGTAATCCGTATTTGCC (site ACCTAGCCTGG) | 0 |
| TCCTAGCCATGGACCGGTTTTCCCGGTAATCCGTATTTGCC (site CCCTAGCCTGG) | 0 |
| TCCTAGCCATGGACCGGTTTTCCCGGTAATCCGTATTTGCC (site GCCTAGCCTGG) | 0.221 |
| TCCTAGCCATGGACCGGTTTTCCCGGTAATCCGTATTTGCC (site TCCTAGCCTGG) | 0 |
| TCGACTCCATGGACCGGTTTTCCCGGTAATCCGTATTTGCC (site TCGACTCCTGG) | 0 |
| TCGAGCGCATGGACCGGTTTTCCCGGTAATCCGTATTTGCT (site TCGAGCGCTAG) | 1.5 |
| TCGAGGACATGGACCGGTTTTCCCGGTAATCCGTATTTGGC (site TCGAGGACTGC) | 0 |
| TCGAGTCCATGGACCGGTTTTCCCGGTAATCCGTATTTGGC (site TCGAGTCCTGC) | 0 |
| TCGCAGCCATGGACCGGTTTTCCCGGTAATCCGTATTTGGA (site AAAGTCTCTCG) | 0 |
| TCGCATTCATGGACCGGTTTTCCCGGTAATCCGTATTTGTC (site TCGCATTCTGA) | 0 |
| TCGCCGCCATGGACCGGTTTTCCCGGTAATCCGTATTTGGG (site TCGCCGCCTCC) | 0.00807 |
| TCGCCGGCATGGACCGGTTTTCCCGGTAATCCGTATTTGGC (site TAGCCGGCTGC) | 0 |
| TCGCCGGCATGGACCGGTTTTCCCGGTAATCCGTATTTGGC (site TCGCCGGCTGC) | 0 |
| TCGCCGGCATGGACCGGTTTTCCCGGTAATCCGTATTTGGC (site TGGCCGGCTGC) | 0 |
| TCGCCGGCATGGACCGGTTTTCCCGGTAATCCGTATTTGGC (site TTGCCGGCTGC) | 0 |
| TCGCTAGCATGGACCGGTTTTCCCGGTAATCCGTATTTGCC (site TCGCTAGCTGG) | 0 |
| TCGCTGTCATGGACCGGTTTTCCCGGTAATCCGTATTTGTG (site TCGCTGTCTCA) | 0.936 |
| TCGGAGACATGGACCGGTTTTCCCGGTAATCCGTATTTGCG (site TCAGAGACTCG) | 1.72 |
| TCGGAGACATGGACCGGTTTTCCCGGTAATCCGTATTTGCG (site TCCGAGACTCG) | 0.44 |
| TCGGAGACATGGACCGGTTTTCCCGGTAATCCGTATTTGCG (site TCGGAGACTCG) | 2.41 |
| TCGGAGACATGGACCGGTTTTCCCGGTAATCCGTATTTGCG (site TCTGAGACTCG) | 0.976 |

| Sequence | recombinant UMI read abundance (log10) |
| --- | --- |
| TCGGCGGCATGGACCGGTTTTCCCGGTAATCCGTATTTGAG (site TCGGCGGCTCT) | 0.464 |
| TCGGGTACATGGACCGGTTTTCCCGGTAATCCGTATTTGAC (site TCGGGTACTGT) | 0 |
| TCGTATTCATGGACCGGTTTTCCCGGTAATCCGTATTTGTT (site TCGTATTCTAA) | 1.24 |
| TCGTCTACATGGACCGGTTTTCCCGGTAATCCGTATTTGAT (site TCGTCTACTAT) | 0.00771 |
| TCGTGATCATGGACCGGTTTTCCCGGTAATCCGTATTTGGC (site TCGTGATCTGC) | 0 |
| TCGTTAACATGGACCGGTTTTCCCGGTAATCCGTATTTGTT (site TCGTTAACTAA) | 0.00894 |
| TCGTTCACATGGACCGGTTTTCCCGGTAATCCGTATTTGGA (site TCGTTCACTTC) | 0.0102 |
| TCGTTCTCATGGACCGGTTTTCCCGGTAATCCGTATTTGGG (site TCGTTCTCTCC) | 0.00264 |
| TCTAAATCATGGACCGGTTTTCCCGGTAATCCGTATTTGTT (site TCTAAATCTAA) | 0 |
| TCTAAGACATGGACCGGTTTTCCCGGTAATCCGTATTTGTG (site TCTAAGACTCA) | 0.00606 |
| TCTAAGGCATGGACCGGTTTTCCCGGTAATCCGTATTTGGT (site TCTAAGGCTAC) | 0.43 |
| TCTACACCATGGACCGGTTTTCCCGGTAATCCGTATTTGGT (site TCTACACCTAC) | 0.00817 |
| TCTGAAACATGGACCGGTTTTCCCGGTAATCCGTATTTGTG (site TCTGAAACTCA) | 0.00806 |
| TCTGAGACATGGACCGGTTTTCCCGGTAATCCGTATTTGCC (site TCTGAGACTGG) | 0.0914 |
| TCTGAGACATGGACCGGTTTTCCCGGTAATCCGTATTTGCG (site TCAGAGACTCG) | 0 |
| TCTGAGACATGGACCGGTTTTCCCGGTAATCCGTATTTGCG (site TCCGAGACTCG) | 0.022 |
| TCTGAGACATGGACCGGTTTTCCCGGTAATCCGTATTTGCG (site TCGGAGACTCG) | 0.285 |
| TCTGAGACATGGACCGGTTTTCCCGGTAATCCGTATTTGCG (site TCTGAGACTCG) | 0.476 |
| TCTGCAGCATGGACCGGTTTTCCCGGTAATCCGTATTTGTA (site TCTGCAGCTTA) | 0 |
| TCTGCCCCATGGACCGGTTTTCCCGGTAATCCGTATTTGGG (site TCTGCCCCTCC) | 0.00716 |
| TCTGCCGCATGGACCGGTTTTCCCGGTAATCCGTATTTGAG (site TCTGCCGCTCT) | 0.0275 |
| TCTGGATCATGGACCGGTTTTCCCGGTAATCCGTATTTGCT (site TCTGGATCTAG) | 0 |
| TCTGGGTCATGGACCGGTTTTCCCGGTAATCCGTATTTGTT (site TCTGGGTCTAA) | 0.167 |
| TCTGGTCCATGGACCGGTTTTCCCGGTAATCCGTATTTGAG (site TCTGGTCCTCT) | 0.00736 |
| TCTGTCGCATGGACCGGTTTTCCCGGTAATCCGTATTTGGC (site TCTGTCGCTGC) | 0.00952 |
